Experimental data reported in patent US12268700B2, “3-o-sulfo-galactosylceramide analogs as activators of type II NKT cells and uses thereof” (The United States of America, as represented by the …, priority 2018, dated 2025).
“Also recorded” adds a separate entry of the source.

Key:
[1] = tested on: XV19 type II NKT hybridoma; assay: In vitro stimulation of type II NKT hybridoma with lipid-loaded plate-coated CD1d monomers, IL-2 ELISA; type: cell-based, mouse; settings: 24 h, 0.5 μg plate-coated CD1d monomers loaded with 4 μM sulfatide or analogues, 10 nM α-GalCer or β-GalCer
Procedure: The hybridoma XV19 was created by Cardell, S. et al. (J. Experimental Medicine, 182: 993-1004 (1995)) and was provided by Susanna Cardell.
(§1) CD monomers were loaded as described above. Flat bottom 96 well plates were coated overnight with 0.5 μg of CD1d monomers loaded with 4 μM of sulfatide or sulfatide-analogues, 10 nM of α-GalCer or with 10 ng/ml of anti-CD3 antibody (Biolegend, San Diego, CA) dissolved in PBS. Plates were then washed in PBS and complete medium. 50×10^3 hybridoma cells in 200 μl of complete medium were plated in presence or not of anti-CD1d blocking antibody 20H2.
(§2) Cells were cultured for 24 h at 37° C., 5% CO2. The production of IL-2 was measured by ELISA from the culture supernatant according to the recommendations of the manufacturer.
(§3) Therefore, well-described type I and type II NKT hybridoma cell lines were used in this experiment. The type I NKT hybridoma DN32.D3 expresses the murine semi-invariant TCR Vα14Jα18 associated with the Vβ8.2/Jβ2.4 chain (Brutkiewicz et al.) and is specific for α-GalCer.

IFN-γ = assay: Serum cytokine production after i.p. lipid injection (multiplex analysis); type: in vivo, mice; settings: bled 3, 6, 12 and 24 h, FIG. 7
Procedure: Mice were injected i.p. with lipids and bled 3, 6, 12 and 24 h after injection. The cytokine production in the serum was determined by multiplex analysis.

[2] = tested on: CT26 (colon cancer) cells; assay: CT26 lung metastasis model, lung nodule count; type: in vivo, BALB/c mice; settings: for number of lung nodules: same day 33 nmol sulfatide or analogues or 500 pmol α-GalCer i.p., counted 8 to 12 days, compared to vehicle, FIG. 5
Procedure: 200 μg of sulfatide of sulfatide-analogues dry powder were resuspended with 40 μl of PBS-Tween20-0.05% and warm at 37° C. for 10 min. Then, 697 μl of DPBS were added to obtain a concentration of 300 μg/ml of lipid. Mice received an i.p injection of 100 μl of sulfatide or analogue mix that is equivalent to […] of lipid. A solution of 500 μM of α-GalCer in DPBS-tween20-0.05% was thawed and sonicated at 60° C. for 2 min and a solution at 10 μM was prepared in DPBS. Mice were injected i.p. with […] (100 μl) of α-GalCer solution.
The CT26 cell were cultured in tumor medium: RPMI 1640 (Life technologies) supplemented with 10% heat inactivated fetal calf serum, 2 mM L-Glutamine, penicillin, streptomycin, 10 mM HEPES, 1/100 vol non-essential amino acids, and 1 mM sodium pyruvate 1/1000 of β-mercaptoethanol. Cells were harvested at 80-85% confluence, detached from plastic with trypsin treatment and resuspended at 5×10^6 cell/ml in DPBS. Mice were injected i.v in the tail vein with 0.5×10^6 CT26 cells (100 μl). The same day, mice were injected i.p. with […] of sulfatide or sulfatide analogues, or 10 nmol of α-GalCer.
WT BALB/c mice were injected intravenously (i.v.) with 0.5×10^6 CT26 (colon cancer) and treated the same day with 33 nmol of sulfatide or sulfatide-analogues or 500 pmol of α-GalCer injected i.p. Lung nodules were counted 8 to 12 days after tumor inoculation according to the results in the monitoring mice. n=10 from 2 independent experiments. The results are shown graphically in FIG. 5.
WT BALB/c mice were inoculated i.v. with 5×10^5 CT26 cells and treated i.p. with 30, 5 or 0.5 nmol of sulfatide or C24:2. The number of nodules in the lung was determined 8 to 12 days after injection.
WT BALB/c mice were injected i.v. with 0.5×10^6 CT26 (colon cancer cells) and treated the same day with […] of sulfatide or C24:2 or 500 pmol of α-GalCer injected i.p. Mice were injected i.p with 200 μg/ml of anti-IFNγ or rat IgG isotype control on day 0, day 1, day 2, day 3, and day 5. Lung nodules were counted 8 to 12 days after tumor inoculation according to the results in the monitoring mice. The results are shown in FIG. 8A (Rat IgG) and FIG. 8B (anti-IFN-γ).

lung mononuclear cells = assay: Ex vivo stimulation of lung mononuclear cells with lipid-pulsed BMDC, IL-13 ELISA; type: cell-based, BALB/c mice; settings: BMDC pulsed with 33 μM lipid, 4 days, FIG. 3; for production of IL-13: ELISA of culture supernatant
Procedure: For the preparation of lung mononuclear cells, lungs were perfused with warm Dulbecco's Phosphate-Buffered Saline (DPBS) (Life Technologies, Frederick, MD) from the heart right ventricle. Single cell suspension was prepared with a Lung Dissociation Kit (Miltenyi Biotec, San Diego, CA) according to the manufacturer's protocol. Lung mononuclear cells (LMNC) were then purified from the cell suspension by a 40%/80% gradient of Percoll (Sigma-Aldrich, St-Louis, MO).
BMDC were prepared by collecting bone marrow cells from femurs and tibias of BALB/c mice in complete medium. Cells were suspended at the concentration of 0.2×10^6/ml in complete medium supplemented with 20 ng/ml of GM-CSF (Peprotech, Rocky Hill, NJ) and 2×10^6 cells were plated per Petri dish (Corning, Tewksbury, MA). Fresh medium supplemented with 20 ng/ml GM-CSF was added at day 3 and refreshed at day 6. At day 8 the cells were harvested, washed in complete medium and suspended at 0.4×10^6/ml in complete medium supplemented with 10 ng/ml of GM-CSF and 1 μg/ml of LPS (Sigma-Aldrich). 4×10^6 cells were plated per Petri dish for 24 h.
200 μg of sulfatide of sulfatide-analogues dry powder was dissolved in 100 μl of DPBS containing 0.5% Tween20 (PBS-Tween) (Avantor performance materials). BMDCs were washed and put at the concentration of 1×10^7/ml and incubated 3 h at 37° C. in presence of 30 μg/ml of sulfatide or sulfatide-analogues or the same volume of PBS-Tween as vehicle control. After washing, 100×10^3 pulsed BMDCs were cultured with 0.5×10^6 lung mononuclear cells in complete medium in flat-bottom 96 well plates for 4 days at 37° C., 5% CO2. When indicated, 10 μg/ml of anti-CD1d antibody (20H2, Harlan, Indianapolis, IN) was added. Supernatants were harvested, and IL-13 production was determined by ELISA according to the recommendations of the manufacturer (eBioscience).
Lung mononuclear cells from WT BALB/c mice were stimulated for 4 days in presence of BMDC (bone marrow derived dendritic cells) pulsed with 33 μM of sulfatide, vehicle control, or 33 μM of the sulfatide analogues pC24:1, pC24:2, or C24:2 in presence or absence of the anti-CD1d blocking antibody 20H2 to confirm the dependency of the IL-13 production on CD1d. The production of IL-13 was measured by ELISA in the culture supernatant. The results are shown in FIG. 3 (n=4, duplicates from 2 independent experiments.

[3] = tested on: DN32.D3 type I NKT hybridoma; assay: In vitro stimulation of type I NKT hybridoma with lipid-loaded plate-coated CD1d monomers, IL-2 ELISA; type: cell-based, murine; settings: 24 h; for DN32 activation (IL-2 production): 0.5 μg plate-coated CD1d monomers loaded with 4 μM sulfatide or analogues, 10 nM α-GalCer or β-GalCer; for level of activation (amount of IL-2 produced) of DN32.D3, compared with reference lipids: CD1d monomers loaded with 4 μM lipid
Procedure: The hybridoma cell line DN32.D3 created by Brutkiewicz et al. (R. R. Brutkiewicz et al., J. Experimental Medicine, 183: 1913-1919 (1995)) that express the TCR semi-invariant α-chain Vα14Jα18 associated with the Vβ8.2Jβ2.4 chain was used.
as §1, §2, §3

[4] = tested on: CT26 (colon cancer) cells; settings: murine model of lung metastasis; Ambrosino et al. 2007; cited from earlier work

Row | Compound | XV19 activation (IL-2 production) [1] | production of IFN-γ in the serum (IFN-γ) | protection from tumor nodules with anti-IFN-γ versus rat IgG isotype control ([2]; 0.5×10^6 CT26 i.v., 30 μmol i.p., anti-IFNγ or rat IgG i.p. on days 0, 1, 2, 3, 5, FIGS. 8A-8B) | number of lung nodules ([2]; 0.5×10^6 CT26 i.v.) | reduction of tumor nodules, dose study ([2]; 5×10^5 CT26 i.v., 30, 5 or 0.5 nmol i.p., result stated for 5 nmol, FIG. 6) | production of IL-13 (lung mononuclear cells) | production of IL-13 in presence of anti-CD1d blocking antibody 20H2 (lung mononuclear cells) | DN32 activation (IL-2 production) [3] | development of lung nodules (previously demonstrated) [4] | level of activation (amount of IL-2 produced) of DN32.D3, compared with reference lipids [3]
1 | CCCCC/C=C\C/C=C\CCCCCCCCCCCCCC(=O)N[C@@H](CO[C@@H]1O[C@H](CO)[C@H](O)[C@H](OS(=O)(=O)O)[C@H]1O)[C@H](O)/C=C/CCCCCCCCCCCCC [C24:2, (2S,3R,4E)-1-(3-O-Sodiumsulfonyl-β-D-galactopyranosyloxy)-2-(N-15Z,18Z-tetracosadienoylamino)octadec-4-en-3-ol] | activated only XV19; also recorded: activated only type II NKT cells | induced a high production of IFN-γ | dependent on IFN-γ | significantly reduced the number of lung nodules; also recorded: induced a significant reduction of the number of lung nodules | efficient for the reduction of tumor nodules | induced a high production of IL-13 | abrogated | not DN32.D3; also recorded: not type I | – | –
2 | CCCCCCCCCCCCCCCCCCCCCCCCCC(=O)N[C@@H](CO[C@H]1O[C@H](CO)[C@H](O)[C@H](O)[C@H]1O)[C@H](O)[C@H](O)CCCCCCCCCCCCCC [α-GalCer, α-galactosylceramide, reference compound] | not | – | – | inhibited their development | – | – | – | activated | abrogated it | –
3 | (2S,3S,4R)-1-(3-O-Sodiumsulfonyl-β-D-galactopyranosyloxy)-2-(N-15Z-tetracosenoylamino)octadecane-3,4-diol [pC24:1] | activated XV19 | – | – | did not have any effect | – | induced a high production of IL-13 | abrogated | also activated DN32.D3 | – | lower than that induced by α-GalCer and in the same range as the one induced by β-GalCer
4 | β-galactosylceramide [β-GalCer, reference compound] | not | – | – | – | – | – | – | activated | – | –
5 | CCCCC/C=C\C/C=C\CCCCCCCCCCCCCC(=O)N[C@@H](CO[C@@H]1O[C@H](CO)[C@H](O)[C@H](OS(=O)(=O)O)[C@H]1O)[C@H](O)[C@H](O)CCCCCCCCCCCCCC [pC24:2, (2S,3S,4R)-1-(3-O-Sodiumsulfonyl-β-D-galactopyranosyloxy)-2-(N-15Z,18Z-tetracosadienoylamino)octadecan-3,4-diol] | activated XV19 | – | – | did not have any effect | – | induced a high production of IL-13 | abrogated | also activated DN32.D3 | – | lower than that induced by α-GalCer and in the same range as the one induced by β-GalCer
6 | CCCCCCCC/C=C\CCCCCCCCCCCCCC(=O)N[C@@H](CO[C@H]1O[C@H](CO)[C@H](O)[C@H](OS(=O)(=O)O)[C@H]1O)[C@H](O)/C=C/CCCCCCCCCCCCC [Sulfatide C24:1, 3-o-sulfo-α-galactosylceramide, d18:1/C24:1, reference compound] | activated | – | – | increased the number of lung nodules | – | – | – | not | increased the development of nodules | –
